The values below are quoted from earlier work in US20250281528A1, “GRAPHENE OXIDE-CATIONIC SILVER NANOCOMPOSITES AND THEIR USE AS BROAD-SPECTRUM ANTIMICROBIAL AGENTS” (priority 2020, published 2025).

Among the test systems are Vibrio cholerae; Salmonella typhi; Streptococcus pyogenes; Candida albicans.
What all share (conditions): literature values, refs in Table 6 footnotes

Turning to `O=[N+]([O-])[O-].[Ag+]` [AgNO3, Silver Nitrate], the MIC in the series with Vibrio cholerae was 70 ^c μg/mL; in the series on Salmonella typhi, 110 ^c μg/mL; in the series with Streptococcus pyogenes, 80 ^c μg/mL; with Candida albicans, 4.9 ^f μg/mL.
